Data reported in US20260094676A1, “METHOD AND APPARATUS FOR PREDICTING DRUG BIOAVAILABILITY” (LIVERPOOL JOHN MOORES UNIVERSITY, priority 2022, published 2026).
Counter-ions that a name gives are not always drawn. Like-named read-outs stand apart in the source and are kept apart here.

Experiments:
[1] = concomitant intake of kolanut with halofantrine; cited from earlier work
[2] = humans, cited from earlier work
[3] = dogs, cited from earlier work
[4] = Reversed phase TLC lipophilicity measurement on Leucaena oil device (LOD); conditions: for ICHI (isocratic chromatographic hydrophobicity index): LOD R1 to R10, methanol in water mobile phase
Procedure: Silica gel GF254 plates (5×10 cm) are successively developed by ascending development in the oil solution. Ten consecutive runs were carried out in each of the six tanks set up to prepare the Leucaena oil device (LOD).
The plates were air-dried at room temperature and the plates were developed in saturated development tanks containing 10 mL of the mobile phase. The plates were developed over a path of 7 cm and allowed to air-dry before visualization under UV light at 254 nm. The retardation factor (Rf) was then measured. The development was performed in duplicate.
Rm was computed by the equation: […]
The linear regression of Rm versus organic modifier fraction is governed by the Soczewinski Wachmeister equation: […]
The mobile phase used consisted of various concentrations of methanol in 0.1N HCl and Phosphate buffer pH 6.8.
(§1) Data analysis was done as previously described, Rf was transformed to Rm and linear regression analysis implemented to determine the lipophilicity parameter, ICHI.
(§2) Data analysis was performed as described earlier under data analysis in previous sections. Rf is transformed to Rm and linear regression of Rm versus methanol fraction produces linear regression parameters that provide the lipophilicity metric.

[5] = Procedure: The mobile phase used consisted of various concentrations of methanol in 0.1N HCl and phosphate buffer pH 6.8.
as §1, §2

[6] = 48 h
[7] = cited from earlier work
[8] = halofantrine administered postprandially

CCCCNCCC(O)c1cc2c(Cl)cc(Cl)cc2c2cc(C(F)(F)F)ccc12 (stereo not drawn) [desbutylhalofantrine]
Cmax, effect of concomitant kolanut [1]: significantly decreased
t1/2, effect of concomitant kolanut [1]: no significant effect
tmax, effect of concomitant kolanut [1]: no significant effect
decrease of proportional formation of desbutyl metabolite [2, 8]: 2.4 fold
decrease of proportional formation of desbutyl metabolite [3, 8]: 6.8 fold

CC(=O)N1CCN(c2ccc(OCC3COC(Cn4ccnc4)(c4ccc(Cl)cc4Cl)O3)cc2)CC1 (stereo not drawn) [ketoconazole]
Lipophilicity classification based on ICHI [4]: amphiphilic
ICHI, mean value ([4]; LOD, mean over 0.1N HCl and phosphate buffer pH 6.8 mobile phases): 0.70
Lipophilicity classification based on ICHI [5]: lipophilic
ICHI, mean value ([5]; ODS, mean over 0.1N HCl and phosphate buffer pH 6.8 mobile phases): 0.86
critical point ('critical micellar concentration') of ketoconazole for halofantrine solubility [6]: 0.015%

Oc1ccc2ccccc2c1 [β-naphthol]
ICHI (isocratic chromatographic hydrophobicity index) [4]: 0.46-0.48

Oc1cccc2ccccc12 [α-naphthol]
ICHI (isocratic chromatographic hydrophobicity index) [4]: 0.52-0.54

O=C(O)c1cn(C2CC2)c2cc(N3CCNCC3)c(F)cc2c1=O [ciprofloxacin hydrochloride]
Qsi ([4]; LOD, combination with model Garcinia bioflavonoid): about 10

COc1ccc2cc(CCC(C)=O)ccc2c1 [nabumetone]
ICHI (isocratic chromatographic hydrophobicity index) [4]: 0.61-0.63

CCCCN(CCCC)CCC(O)c1cc2c(Cl)cc(Cl)cc2c2cc(C(F)(F)F)ccc12 (stereo not drawn) [halofantrine]
Solubility interaction quotient (Qsi), fold more lipophilic than caffeine ([4]; LOD, halofantrine versus caffeine): 24 fold
Qsi ([4]; LOD, ketoconazole and halofantrine): 1.42
Solubility interaction quotient (Qsi), fold more lipophilic than caffeine ([5]; ODS, halofantrine versus caffeine): 2 fold
Cmax, effect of concomitant kolanut [1]: significantly decreased
t1/2, effect of concomitant kolanut [1]: no significant effect
tmax, effect of concomitant kolanut [1]: no significant effect
increase of oral bioavailability ([2]; administered postprandially): 3 fold
increase of oral bioavailability ([3]; administered postprandially): 12 fold
plasma Hfm/Hf AUC (0-72 h) ratio ([7]; fasted oral administration of Hf with ketoconazole): less than 0.05
plasma Hfm/Hf AUC (0-72 h) ratio ([7]; fasted oral administration of Hf without ketoconazole): 0.56
